Results: ChEMBL document CHEMBL3817805, “Benzamide capped peptidomimetics as non-ATP competitive inhibitors of CDK2 using the REPLACE strategy” (Bioorg Med Chem Lett, 2016)
Residues, ends and D or L forms follow the SMILES beside them.

Legend:
[1] = target: CDK2/Cyclin A2 (Homo sapiens, UniProt P24941); assay: Inhibition of recombinant human CDK2/cyclin A2 using fluoresceinyl-Ahx-Pro-Val-Lys-Arg-Arg-Leu-Phe-Gly as substrate incubated for 45 mins by fluorescence polarization assay; assay type: protein-complex assay
[2] = target: Cyclin-dependent kinase 4/cyclin D1 (Homo sapiens, UniProt P24385); assay: Inhibition of recombinant human CDK4/cyclin D1 using fluoresceinyl-AhxPro-Val-Lys-Arg-Arg-Leu-(3ClPhe)-Gly as substrate incubated for 45 mins by fluorescence polarization assay; assay type: protein-complex assay
[3] = tested on: U2OS; assay: Antiproliferative activity against human U2OS cells incubated for 72 hrs by MTT assay; assay type: functional, cell-based
[4] = Antiproliferative activity against human DU145 cells incubated for 72 hrs by MTT assay; assay type: functional, cell-based; conditions: DU-145, 72 h

Sequence of Cyclin-dependent kinase 4/cyclin D1 (P11802 whole entry): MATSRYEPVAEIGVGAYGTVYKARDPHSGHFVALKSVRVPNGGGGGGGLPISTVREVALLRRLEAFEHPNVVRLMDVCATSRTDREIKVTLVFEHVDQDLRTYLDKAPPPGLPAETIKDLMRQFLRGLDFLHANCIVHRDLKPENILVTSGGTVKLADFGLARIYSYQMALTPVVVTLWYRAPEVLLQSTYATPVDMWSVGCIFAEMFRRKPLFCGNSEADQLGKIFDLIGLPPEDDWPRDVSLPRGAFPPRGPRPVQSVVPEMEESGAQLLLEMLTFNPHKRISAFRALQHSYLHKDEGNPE
Sequence of Cyclin-dependent kinase 4/cyclin D1 (P24385 whole entry): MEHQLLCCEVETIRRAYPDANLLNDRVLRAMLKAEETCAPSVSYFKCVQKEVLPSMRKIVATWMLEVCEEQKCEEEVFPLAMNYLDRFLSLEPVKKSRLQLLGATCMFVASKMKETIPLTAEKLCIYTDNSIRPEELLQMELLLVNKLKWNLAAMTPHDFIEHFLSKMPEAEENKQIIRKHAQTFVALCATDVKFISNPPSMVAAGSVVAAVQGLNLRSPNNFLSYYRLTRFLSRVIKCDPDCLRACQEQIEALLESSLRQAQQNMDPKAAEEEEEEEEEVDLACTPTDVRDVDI

Row | SMILES | IC50 [1] [µM] | IC50 [2] [µM] | IC50 [3] [µM] | IC50 [4] [µM]
1 | CC[C@H](C)[C@H](NC(=O)[C@H](CC(C)C)NC(=O)[C@H](CCCNC(=N)N)NC(=O)c1ccc(CN2CCN(C)CC2)cc1)C(=O)N[C@@H](Cc1ccccc1)C(=O)O (HELM PEPTIDE1{[CN1CCN(Cc2ccc(C(=O)[*:2])cc2)CC1].R.L.I.F}$$$$V2.0) | 7.92 | 11.3 | – | –
2 | CC(C)CC(CC(=O)NC(Cc1ccsc1)C(N)=O)NC(=O)[C@H](CCCNC(=N)N)NC(=O)c1ccc(CN(C)C2CCNCC2)cc1 (stereo partly drawn) | > 50 | – | – | –
3 | CC(C)CC(CC(=O)NC(Cc1ccsc1)C(N)=O)NC(=O)[C@H](CCCNC(=N)N)NC(=O)c1cc(OC2CCNCC2)cc(OC2CCNCC2)c1 (stereo partly drawn) | > 30 | – | – | –
4 | CC(C)CC(CC(=O)NC(Cc1ccsc1)C(N)=O)NC(=O)[C@H](CCCNC(=N)N)NC(=O)c1ccc(C=C2CCNCC2)cc1 (stereo partly drawn) | 9.16 | > 100 | – | –
5 | CC(C)CC(CC(=O)NC(Cc1ccsc1)C(N)=O)NC(=O)[C@H](CCCNC(=N)N)NC(=O)c1ccc(CNC2CCNCC2)cc1 (stereo partly drawn) | > 100 | – | – | –
6 | CCCN1CCN(Cc2ccc(C(=O)N[C@@H](CCCNC(=N)N)C(=O)NC(CC(=O)NC(Cc3ccsc3)C(N)=O)CC(C)C)cc2)CC1 (stereo partly drawn) | 31.3 | 8.52 | – | –
7 | CC(C)CC(CC(=O)NC(Cc1ccsc1)C(N)=O)NC(=O)[C@H](CCCNC(=N)N)NC(=O)c1ccc(C=C2CCN(C)CC2)cc1 (stereo partly drawn) | 26 | 69.9 | – | –
8 | CC(C)CC(CC(=O)N(C)[C@@H](Cc1ccccc1)C(N)=O)NC(=O)[C@H](CCCNC(=N)N)NC(=O)c1ccc(OC2CCNCC2)cc1 (stereo partly drawn) | 40.4 | 31 | – | –
9 | CC(C)CC(CC(=O)N(C)[C@@H](Cc1ccccc1)C(N)=O)NC(=O)[C@H](CCCNC(=N)N)NC(=O)c1ccc(CN2CCNC[C@H]2C)cc1 (stereo partly drawn) | 22.3 | 45.4 | – | –
10 | CC(C)CC(CC(=O)NC(Cc1ccsc1)C(N)=O)NC(=O)[C@H](CCCNC(=N)N)NC(=O)c1ccc(CN(C)C2CCCNC2)cc1 (stereo partly drawn) | 31 | – | 153 | –
11 | CC(C)CC(CC(=O)N(C)[C@@H](Cc1ccccc1)C(N)=O)NC(=O)[C@H](CCCNC(=N)N)NC(=O)c1ccc(CN2CCNC[C@@H]2C)cc1 (stereo partly drawn) | 13.4 | > 100 | 229 | 204
12 | CCOc1cc(C(=O)N[C@@H](CCCNC(=N)N)C(=O)NC(CC(=O)N(C)[C@@H](Cc2ccccc2)C(N)=O)CC(C)C)ccc1CN1CCNCC1 (stereo partly drawn) | 22.6 | 18.6 | – | –
13 | CC(C)CC(CC(=O)NC(Cc1ccsc1)C(N)=O)NC(=O)[C@H](CCCNC(=N)N)NC(=O)c1ccc(CC2CCNCC2)cc1 (stereo partly drawn) | > 30 | – | – | –
14 | CC[C@H](C)[C@H](NC(=O)[C@H](CC(C)C)NC(=O)[C@H](CCCNC(=N)N)NC(=O)c1ccc(CN2CCNCC2)cc1)C(=O)N[C@@H](Cc1ccccc1)C(=O)O (HELM PEPTIDE1{[O=C(c1ccc(CN2CCNCC2)cc1)[*:2]].R.L.I.F}$$$$V2.0) | 12.9 | 11.7 | – | –
15 | CC[C@H](C)[C@H](NC(=O)[C@H](CC(C)C)NC(=O)[C@H](C)NC(=O)c1ccc(CN2CCNCC2)cc1)C(=O)N[C@@H](Cc1ccccc1)C(=O)O (HELM PEPTIDE1{[O=C(c1ccc(CN2CCNCC2)cc1)[*:2]].A.L.I.F}$$$$V2.0) | > 100 | 51.5 | – | –
16 | CC[C@H](C)[C@H](NC(=O)[C@H](CC(C)C)NC(=O)[C@H](CCCNC(=N)N)NC(=O)c1ccc(N2CCNCC2)cc1)C(=O)N[C@@H](Cc1ccccc1)C(=O)O (HELM PEPTIDE1{[O=C(c1ccc(N2CCNCC2)cc1)[*:2]].R.L.I.F}$$$$V2.0) | – | 23.8 | – | –

Further lines, with some results ahead:

Row | IC50 [1] [µM] | IC50 [2] [µM] | SMILES | IC50 [3] [µM] | IC50 [4] [µM]
17 | 6.78 | 45.6 | CCN1CCN(Cc2ccc(C(=O)N[C@@H](CCCNC(=N)N)C(=O)NC(CC(=O)NC(Cc3ccsc3)C(N)=O)CC(C)C)cc2)[C@@H](C)C1 (stereo partly drawn) | – | –
18 | 5.3 | 12.9 | CC(C)C[C@H](NC(=O)[C@H](CCCNC(=N)N)NC(=O)c1ccc(CN2CCNCC2)cc1)C(=O)N[C@@H](CC(N)=O)C(=O)N1CCC[C@@H]1C(=O)N[C@H](Cc1ccccc1)C(=O)N[C@@H](Cc1ccccc1)C(=O)O | – | –
19 | 17.4 | 74.3 | CCN1CCN(Cc2ccc(C(=O)N[C@@H](CCCNC(=N)N)C(=O)NC(CC(=O)NC(Cc3ccsc3)C(N)=O)CC(C)C)cc2)CC1 (stereo partly drawn) | – | –
20 | 0.69 | 15.3 | CC(C)C[C@H](NC(=O)[C@H](CCCNC(=N)N)NC(=O)c1ccc(CNC(=N)N)cc1)C(=O)N[C@@H](CC(N)=O)C(=O)N1CCC[C@@H]1C(=O)N[C@H](Cc1ccccc1)C(=O)N[C@@H](Cc1ccccc1)C(=O)O | – | –
21 | 13.1 | – | CC(C)CC(CC(=O)NC(Cc1ccsc1)C(N)=O)NC(=O)[C@H](CCCNC(=N)N)NC(=O)c1ccc(CN2CCNC[C@@H]2C)c(O)c1 (stereo partly drawn) | – | –
22 | 22.4 | 9.36 | CCCN1CCN(Cc2ccc(C(=O)N[C@@H](CCCNC(=N)N)C(=O)NC(CC(=O)NC(Cc3ccsc3)C(N)=O)CC(C)C)cc2)[C@@H](C)C1 (stereo partly drawn) | – | –
23 | 4.56 | 10.4 | CC[C@H](C)[C@H](NC(=O)[C@H](CC(C)C)NC(=O)[C@H](CCCNC(=N)N)NC(=O)c1ccc(CN2CCNCC2)c(O)c1)C(=O)N[C@@H](Cc1ccccc1)C(=O)O (HELM PEPTIDE1{[O=C(c1ccc(CN2CCNCC2)c(O)c1)[*:2]].R.L.I.F}$$$$V2.0) | – | –
24 | 5.95 | 5.14 | CCOc1cc(C(=O)N[C@@H](CCCNC(=N)N)C(=O)N[C@@H](CC(C)C)C(=O)N[C@H](C(=O)N[C@@H](Cc2ccccc2)C(=O)O)[C@@H](C)CC)ccc1CN1CCNCC1 (HELM PEPTIDE1{[CCOc1cc(C(=O)[*:2])ccc1CN1CCNCC1].R.L.I.F}$$$$V2.0) | – | –
25 | 8.32 | 48.9 | CC(C)CC(CC(=O)N(C)[C@@H](Cc1ccccc1)C(N)=O)NC(=O)[C@H](CCCNC(=N)N)NC(=O)c1ccc(CN2CCN(C3CCN(C)CC3)CC2)cc1 (stereo partly drawn) | – | –
26 | 7.42 | 11.8 | CC(C)CC(CC(=O)N(C)[C@@H](Cc1ccccc1)C(N)=O)NC(=O)[C@H](CCCNC(=N)N)NC(=O)c1ccc(CN2CCNCC2)c(O)c1 (stereo partly drawn) | – | –
